Results: US20120041071A1, “[…] TREATING PAIN DUE TO OSTEOARTHRITIS” (Gruenenthal GmbH, priority 2007, published 2012)

Assays:
[1] = target: recombinantly produced μ-opioid receptor (Homo sapiens, UniProt P35372); test: Affinity to recombinantly produced μ-opioid receptor; type: binding; details: in humans; relative to morphine
[2] = test system: moderate to severe pain due to arthrosis of the knee; test: Randomised, placebo-controlled double-blind study, tapentadol PR vs oxycodone HCl CR, 28 days (Example 1); type: in vivo, human; details: compared with oxycodone
Experimental: The efficacy and tolerability of tapentadol with prolonged release (prolonged release (PR)) and oxycodone HCl with controlled release (controlled release (CR)) were compared with a placebo in patients with moderate to severe pain due to arthrosis of the knee.
Patients (N=670) were randomly selected and treated over 28 days twice with tapentadol PR 100 mg, with tapentadol PR 200 mg, with oxycodone HCl CR 20 mg or with a placebo. The dose was titrated at the start of the treatment. The primary efficacy endpoint was the average perception of pain during the preceding 24 hours at the time of the last medical examination (final visit) based on a visual analog 100-mm sale (VAS, 0 mm=no pain, 100 mm=worst pain imaginable)).
The study consisted of a 14-day, double-blind titration phase (3 days->11 days) followed by a 14-day double-blind maintenance phase (at the highest dose of the titration scheme in each case; see FIG. 1):
tapentadol PR 100 mg: 25 mg (bid)->50 mg (bid)->100 mg (bid);
tapentadol PR 200 mg: 100 mg (bid)->150 mg (bid)->200 mg (bid);
oxycodone HCl CR 20 mg: 10 mg (bid)->10 mg (bid)->20 mg (bid).

[3] = test system: pain; test: Clinical studies of pain-alleviating action compared with morphine; type: in vivo, human

recombinantly produced μ-opioid receptor, sequence (P35372 whole entry): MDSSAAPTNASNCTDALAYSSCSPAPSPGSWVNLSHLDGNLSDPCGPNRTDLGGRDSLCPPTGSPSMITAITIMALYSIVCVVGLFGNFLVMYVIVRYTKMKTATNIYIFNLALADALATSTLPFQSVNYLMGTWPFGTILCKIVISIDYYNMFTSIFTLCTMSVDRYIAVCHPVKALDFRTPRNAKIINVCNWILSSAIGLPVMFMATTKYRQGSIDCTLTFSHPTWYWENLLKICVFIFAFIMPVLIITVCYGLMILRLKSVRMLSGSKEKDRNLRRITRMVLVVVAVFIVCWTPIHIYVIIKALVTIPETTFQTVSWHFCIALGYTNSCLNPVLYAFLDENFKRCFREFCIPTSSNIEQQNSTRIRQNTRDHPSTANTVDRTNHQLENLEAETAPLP

CC[C@@H](c1cccc(O)c1)[C@@H](C)CN(C)C [tapentadol, (−)-(1R,2R)-3-(3-dimethylamino-1-ethyl-2-methyl-propyl)-phenol]
affinity to the recombinantly produced μ-opioid receptor, times less than that of morphine [1]: 18 times
tolerability with respect to gastrointestinal and central nervous system side effects [2]: better tolerated than oxycodone
pain-alleviating action relative to morphine [3]: two to three times less than that of morphine
